Source: EP0410147B1

System: HRV2-2A
Format: biochemical
Conditions: for Spaltung des Peptidsubstrats in trans durch HRV2-2A: 30 min 37°C

Substance	Spaltung des Peptidsubstrats in trans durch HRV2-2A	Spaltung des Peptidsubstrats	Spaltung des Peptidsubstrats durch HRV2-2A in Anwesenheit von 2,5 M NaCl
Ac-TRPIITTAGPSDMYVH-NH2 [Peptid H, Ac-TRPIITTAGPSDMYVH-NH₂]	spezifisch zwischen Alanin und Glycin		
TRPIITTYGPSDMYVH [Peptid K, Peptidsubstrat mit Spaltsignal Tyr/Gly statt Ala/Gly]	mit der gleichen Effizienz wie die nativen Peptidsubstrate vergleichbarer Länge von HRV2-2A gespalten	100%	vollständige Spaltung
